{"source": "ChEMBL document CHEMBL5357083", "about": "(ACS Med Chem Lett, 2024)", "key": {"in vitro [1]": {"experiment": "in vitro", "conditions": "mouse, liver microsomes"}, "in vitro [2]": {"experiment": "in vitro", "conditions": "dog, MDCK-MDR1"}}}
{"smiles": "Brc1ccc2[nH]nc(C3=CCCNC3)c2c1", "values": [{"measurement": "CLhep predicted at […], 1 µM", "setting": "in vitro [1]", "result": 57, "unit": "mL/min/kg"}, {"measurement": "Papp A→B at 5 µM", "setting": "in vitro [2]", "result": 7.9, "unit": "×10⁻⁶ cm/s"}]}
